These results are taken from ChEMBL document CHEMBL1770095, “Discovery of histone deacetylase 8 selective inhibitors” (Bioorg Med Chem Lett, 2011).

One assay addresses T1, Histone deacetylase 8 (Homo sapiens, UniProt Q9BY41).
T1 sequence (Q9BY41 whole entry): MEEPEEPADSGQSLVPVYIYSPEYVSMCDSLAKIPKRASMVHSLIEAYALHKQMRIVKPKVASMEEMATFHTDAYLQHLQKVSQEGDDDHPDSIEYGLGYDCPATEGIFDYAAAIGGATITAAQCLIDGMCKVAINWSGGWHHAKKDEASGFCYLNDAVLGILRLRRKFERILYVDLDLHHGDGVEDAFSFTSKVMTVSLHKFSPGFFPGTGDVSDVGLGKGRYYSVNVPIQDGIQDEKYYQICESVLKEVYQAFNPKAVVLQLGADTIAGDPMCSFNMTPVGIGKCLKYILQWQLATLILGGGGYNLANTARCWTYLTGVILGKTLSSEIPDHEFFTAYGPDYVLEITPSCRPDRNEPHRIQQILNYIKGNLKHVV
Nature of the assay: Inhibition of full length HDAC8 assessed as 7-amino-4-methylcoumarin release from fluorophore conjugated substrate after 5 mins by fluorescence assay.

The target in the next assay is Histone deacetylase 2 (Homo sapiens, UniProt Q92769). Nature of the assay: Inhibition of full length HDAC2 assessed as 7-amino-4-methylcoumarin release from fluorophore conjugated substrate after 5 mins by fluorescence assay.
Sequence of Histone deacetylase 2 (Q92769 whole entry): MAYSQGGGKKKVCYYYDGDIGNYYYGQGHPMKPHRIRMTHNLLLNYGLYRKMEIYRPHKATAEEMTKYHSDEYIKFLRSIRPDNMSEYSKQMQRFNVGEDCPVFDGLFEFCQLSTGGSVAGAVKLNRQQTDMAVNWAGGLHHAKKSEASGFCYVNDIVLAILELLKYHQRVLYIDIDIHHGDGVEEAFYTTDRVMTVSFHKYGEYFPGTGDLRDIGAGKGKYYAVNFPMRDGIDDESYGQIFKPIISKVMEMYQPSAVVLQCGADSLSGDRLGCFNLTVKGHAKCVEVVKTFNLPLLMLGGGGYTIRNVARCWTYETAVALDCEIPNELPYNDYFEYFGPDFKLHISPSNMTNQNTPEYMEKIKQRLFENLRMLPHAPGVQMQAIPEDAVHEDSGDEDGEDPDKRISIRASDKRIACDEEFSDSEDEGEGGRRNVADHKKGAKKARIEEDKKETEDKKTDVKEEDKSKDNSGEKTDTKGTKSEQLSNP
The target of assay [1] is Histone deacetylase 3/Nuclear receptor corepressor 2 (HDAC3/NCoR2) (Homo sapiens, UniProt O15379). The assay is described as follows: Inhibition of full length HDAC3/NCoR2 assessed as 7-amino-4-methylcoumarin release from fluorophore conjugated substrate after 5 mins by fluorescence assay. Format: protein-complex assay.
Sequence of Histone deacetylase 3/Nuclear receptor corepressor 2 (HDAC3/NCoR2) (O15379 whole entry): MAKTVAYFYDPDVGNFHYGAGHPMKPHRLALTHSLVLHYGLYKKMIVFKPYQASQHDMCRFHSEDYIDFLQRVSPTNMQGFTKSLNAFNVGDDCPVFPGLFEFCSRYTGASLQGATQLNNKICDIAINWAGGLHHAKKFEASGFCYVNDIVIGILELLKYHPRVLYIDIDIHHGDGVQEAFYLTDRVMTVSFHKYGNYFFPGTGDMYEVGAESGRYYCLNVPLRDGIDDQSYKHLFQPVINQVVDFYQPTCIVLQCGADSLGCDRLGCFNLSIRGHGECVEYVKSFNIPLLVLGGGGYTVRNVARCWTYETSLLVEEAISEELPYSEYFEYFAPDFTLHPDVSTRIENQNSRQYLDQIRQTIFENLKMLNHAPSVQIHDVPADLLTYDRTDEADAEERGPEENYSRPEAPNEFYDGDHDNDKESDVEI
Sequence of Histone deacetylase 3/Nuclear receptor corepressor 2 (HDAC3/NCoR2) (Q9Y618 whole entry, further chain): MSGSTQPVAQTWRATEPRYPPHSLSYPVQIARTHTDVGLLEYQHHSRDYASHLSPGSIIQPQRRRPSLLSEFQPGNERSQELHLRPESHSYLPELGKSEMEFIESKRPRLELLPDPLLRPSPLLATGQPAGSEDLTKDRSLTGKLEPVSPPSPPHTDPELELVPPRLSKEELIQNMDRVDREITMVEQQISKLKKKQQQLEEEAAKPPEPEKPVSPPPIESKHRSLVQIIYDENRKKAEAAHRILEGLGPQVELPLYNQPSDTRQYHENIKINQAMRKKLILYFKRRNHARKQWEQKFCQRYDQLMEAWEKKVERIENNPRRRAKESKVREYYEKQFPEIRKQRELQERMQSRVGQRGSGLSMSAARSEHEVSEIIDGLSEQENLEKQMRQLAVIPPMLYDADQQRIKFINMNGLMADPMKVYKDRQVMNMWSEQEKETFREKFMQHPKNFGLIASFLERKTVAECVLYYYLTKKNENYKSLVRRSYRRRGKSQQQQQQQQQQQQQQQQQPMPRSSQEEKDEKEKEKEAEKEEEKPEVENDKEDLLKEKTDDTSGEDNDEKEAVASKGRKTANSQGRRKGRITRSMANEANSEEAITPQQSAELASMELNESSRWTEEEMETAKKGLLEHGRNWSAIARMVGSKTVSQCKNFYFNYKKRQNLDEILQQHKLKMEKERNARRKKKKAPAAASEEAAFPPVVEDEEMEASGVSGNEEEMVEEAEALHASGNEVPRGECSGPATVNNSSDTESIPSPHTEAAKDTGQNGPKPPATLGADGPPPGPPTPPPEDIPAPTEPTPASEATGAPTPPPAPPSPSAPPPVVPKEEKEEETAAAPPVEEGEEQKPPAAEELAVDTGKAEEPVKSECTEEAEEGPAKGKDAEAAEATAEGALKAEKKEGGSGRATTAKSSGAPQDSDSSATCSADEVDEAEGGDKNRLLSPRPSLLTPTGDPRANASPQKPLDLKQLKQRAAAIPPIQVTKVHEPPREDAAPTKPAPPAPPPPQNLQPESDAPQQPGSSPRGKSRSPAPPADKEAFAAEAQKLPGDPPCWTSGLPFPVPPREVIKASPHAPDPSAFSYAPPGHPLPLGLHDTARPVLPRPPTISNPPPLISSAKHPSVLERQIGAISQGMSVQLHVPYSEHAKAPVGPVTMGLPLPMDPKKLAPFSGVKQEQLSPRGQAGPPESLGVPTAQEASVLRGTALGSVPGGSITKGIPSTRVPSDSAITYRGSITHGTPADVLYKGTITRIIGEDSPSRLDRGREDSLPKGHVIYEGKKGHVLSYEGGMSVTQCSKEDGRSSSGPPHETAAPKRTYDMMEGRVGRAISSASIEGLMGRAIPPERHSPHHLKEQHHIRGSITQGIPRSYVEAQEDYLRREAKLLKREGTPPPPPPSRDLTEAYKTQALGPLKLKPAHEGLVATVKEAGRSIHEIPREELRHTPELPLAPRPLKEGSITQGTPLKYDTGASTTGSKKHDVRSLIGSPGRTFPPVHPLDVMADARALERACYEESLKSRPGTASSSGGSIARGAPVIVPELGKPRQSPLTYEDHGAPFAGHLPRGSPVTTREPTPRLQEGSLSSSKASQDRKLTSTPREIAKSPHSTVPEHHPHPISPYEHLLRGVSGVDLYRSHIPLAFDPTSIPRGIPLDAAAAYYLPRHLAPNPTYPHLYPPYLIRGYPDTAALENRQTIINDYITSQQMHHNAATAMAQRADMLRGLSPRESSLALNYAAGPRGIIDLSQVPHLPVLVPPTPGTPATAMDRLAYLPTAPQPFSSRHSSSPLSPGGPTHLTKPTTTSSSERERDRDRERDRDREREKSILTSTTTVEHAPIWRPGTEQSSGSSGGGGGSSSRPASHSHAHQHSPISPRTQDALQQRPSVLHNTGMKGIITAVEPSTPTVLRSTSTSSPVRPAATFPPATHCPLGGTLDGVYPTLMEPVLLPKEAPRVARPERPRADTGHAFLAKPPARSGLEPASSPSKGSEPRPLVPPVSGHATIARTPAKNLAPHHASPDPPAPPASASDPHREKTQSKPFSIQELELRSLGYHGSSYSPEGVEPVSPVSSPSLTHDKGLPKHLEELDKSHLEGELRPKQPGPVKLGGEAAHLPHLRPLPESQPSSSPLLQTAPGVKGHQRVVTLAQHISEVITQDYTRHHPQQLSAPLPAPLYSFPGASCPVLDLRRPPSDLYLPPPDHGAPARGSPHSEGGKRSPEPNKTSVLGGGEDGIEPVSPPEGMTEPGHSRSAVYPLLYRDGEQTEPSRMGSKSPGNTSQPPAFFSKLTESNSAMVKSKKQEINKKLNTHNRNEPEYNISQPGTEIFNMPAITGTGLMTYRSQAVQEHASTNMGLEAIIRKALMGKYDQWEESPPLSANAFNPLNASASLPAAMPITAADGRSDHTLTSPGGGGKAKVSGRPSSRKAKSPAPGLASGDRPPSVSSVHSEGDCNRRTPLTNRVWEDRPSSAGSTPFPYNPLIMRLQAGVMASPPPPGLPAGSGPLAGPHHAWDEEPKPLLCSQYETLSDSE

Take `O=C(NO)c1cccc(C(=O)N/N=C/c2ccccc2)c1`: the IC50 turned out to be 0.052 µM on Histone deacetylase 8, 20 µM on Histone deacetylase 2 and 18 µM in assay [1].
Turning to `C#CCOc1ccc(/C=N/NC(=O)CCCCCCC(=O)NO)cc1`, the IC50 turned out to be 0.29 µM at Histone deacetylase 8, 0.0021 µM at Histone deacetylase 2 and 0.0031 µM in assay [1].
Turning to `C#CCOc1ccc(/C=N/NC(=O)c2cccc(C(=O)NO)c2)cc1`, the IC50 on Histone deacetylase 8 was found to be 0.029 µM; on Histone deacetylase 2 it was 6.3 µM; in assay [1], 6.2 µM.
As for `O=C1CC/C=C/CCC(=O)N(Cc2cccc(/C=N/NC(=O)c3cccc(C(=O)NO)c3)c2)C[C@@H](c2ccccc2)O1`, the figures for the IC50 (on Histone deacetylase 8; at Histone deacetylase 2; in assay [1]) were 0.023 µM, 3.6 µM and 15 µM, respectively.
As to `O=C1CC/C=C/CCC(=O)N(Cc2cccc(/C=N/NC(=O)c3cccc(C(=O)NO)c3)c2)C[C@H](c2ccccc2)O1`, the results for the IC50 (at Histone deacetylase 8; at Histone deacetylase 2; in assay [1]) were 0.11 µM, 5 µM and 15 µM, respectively.
